{"source": "patent US12605318B2", "about": "“Synergistic preservative/personal care composition containing an alkylene glycol ester” (priority 2020, dated 2026)", "assay_in_all_cases": "Log reduction test of preservative agent and PGC in water matrices (drop plate), Example 3", "assay_type_in_all_cases": "cell-based", "key": {"[1]": {"test_system": "Pluralibacter gergoviae ATCC 33028/DSM 9245", "conditions": "PGC 0 ppm; for Log reduction: contact time 5 min, water", "experimental": "(§1) Bacterial and yeast strains were kept cryofrozen at −80° C.; before use, they were sub-cultured onto tryptone soya agar (Bacteria) and malt extract agar (yeast), and incubated at the appropriate temperature and time.\n(§2) A test suspension was then created for each the bacteria and yeast by adding loopfuls of organism to sterile distilled water and adjusting the cell concentration to between 1×10^8 and 5×10^9 CFU/ml for bacteria, and 1×10^6 and 5×10^7 CFU/ml for yeast. This was achieved using the data from a calibration curve generated by a spectrophotometer at a wavelength of 620 nm.\n(§3) For each organism tested, 1 g of each preservative agent and PGC composition sample was prepared in sterile distilled water.\n(§4) Each test sample was prepared by inoculating 1 ml aliquot of the test organism suspension into 1 ml of test sample.\n(§5) The combination was then mixed. Each test mixture was sampled and tested at a defined time point after inoculation. The contact times used in this study are detailed in Table 7 above.\n(§6) Upon reaching the specified contact time the test mixture was deactivated by adding a 100 μl of test mixture into 900 μl of neutralizing broth and the whole solution was mixed. The solution was left for 5 minutes to ensure the action of the preservative agent was effectively neutralized. Subsequent dilutions were prepared by adding 100 μl into 900 μl of neutralizing broth.\n(§7) For each dilution prepare drop plates using appropriate agar and incubate at the appropriate temperature and time as in Table 5.\n(§8) Used the drop plate technique.\n(§9) Prepare agar plates by drying for 45 min-1 hour in a laminar flow at 20-25° C. Aliquot 0.025 ml drops onto the agar surface for each sample dilution. Allow drops to dry and incubate appropriately.\n(§10) Plates were plates were prepared in sextuplicate for each for each sample dilution.\n(§11) [formula] • Where • d1 is sum of viable count values from 6 drops • This was then multiplied by 40 to establish cfu/ml; Enumeration and Calculation of T (Test Sample)\n(§12) [formula] • Where • d1 is sum of viable count values from 6 drops • This was then multiplied by 40 to establish cfu/ml;\n(§13) To calculate the final log reduction the following calculation was used: Log 10 N−log 10 T=log reduction"}, "[2]": {"test_system": "Aspergillus brasiliensis ATCC 16404/NCPF 2275", "conditions": "PGC 0 ppm", "experimental": "A test suspension was then created in tryptone buffered saline and adjusting the cell concentration to between 1×10^5 and 5×10^6 CFU/ml.\nas §3, §4, §5, §6, §7, §8, §9, §10, §11, §12, §13"}, "[3]": {"test_system": "Candida albicans ATCC 10231/DSM 1386", "conditions": "PGC 0 ppm; for Log reduction: contact time 5 min, water", "experimental": "as §1, §2, §3, §4, §5, §6, §7, §8, §9, §10, §11, §12, §13"}, "[4]": {"conditions": "Didecyl dimethyl ammonium chloride 10 ppm"}, "[5]": {"conditions": "Didecyl dimethyl ammonium chloride 20 ppm"}, "[6]": {"conditions": "Didecyl dimethyl ammonium chloride 30 ppm"}, "[7]": {"conditions": "Didecyl dimethyl ammonium chloride 40 ppm"}, "[8]": {"conditions": "Didecyl dimethyl ammonium chloride 50 ppm"}}, "data": [{"smiles": "OCc1ccccc1", "note": "[Benzyl Alcohol]", "values": [{"measurement": "log reduction", "setting": "[1]; Benzyl Alcohol 500 ppm", "value": 0.00}, {"measurement": "log reduction", "setting": "[1]; Benzyl Alcohol 1000 ppm", "value": 1.24}, {"measurement": "log reduction", "setting": "[1]; Benzyl Alcohol 2000 ppm", "value": 1.57}, {"measurement": "log reduction", "setting": "[1]; Benzyl Alcohol 3000 ppm", "value": 2.04}, {"measurement": "log reduction", "setting": "[1]; Benzyl Alcohol 4000 ppm", "value": 4.04}]}, {"smiles": "C/C=C/C=C/C(=O)O", "note": "[Sorbic Acid]", "values": [{"measurement": "log reduction", "setting": "[1]; Sorbic acid 100 ppm", "value": 0.00}, {"measurement": "log reduction", "setting": "[1]; Sorbic acid 200 ppm", "value": 0.00}, {"measurement": "log reduction", "setting": "[1]; Sorbic acid 300 ppm", "value": 0.00}, {"measurement": "log reduction", "setting": "[1]; Sorbic acid 400 ppm", "value": 0.58}, {"measurement": "log reduction", "setting": "[1]; Sorbic acid 500 ppm", "value": 1.38}]}, {"smiles": "O=C([O-])c1ccccc1.[Na+]", "note": "[Sodium Benzoate]", "values": [{"measurement": "log reduction", "setting": "[2]; Sodium Benzoate 10000 ppm", "value": 0.17}, {"measurement": "log reduction", "setting": "[2]; Sodium Benzoate 20000 ppm", "value": 0.50}, {"measurement": "log reduction", "setting": "[2]; Sodium Benzoate 30000 ppm", "value": 0.70}, {"measurement": "log reduction", "setting": "[2]; Sodium Benzoate 40000 ppm", "value": 1.32}, {"measurement": "log reduction", "setting": "[2]; Sodium Benzoate 50000 ppm", "value": 1.34}, {"measurement": "log reduction", "setting": "[1]; Sodium Benzoate 2000 ppm", "value": 0.00}, {"measurement": "log reduction", "setting": "[1]; Sodium Benzoate 5000 ppm", "value": 0.00}, {"measurement": "log reduction", "setting": "[1]; Sodium Benzoate 10000 ppm", "value": 0.00}, {"measurement": "log reduction", "setting": "[1]; Sodium Benzoate 20000 ppm", "value": 0.46}, {"measurement": "log reduction", "setting": "[1]; Sodium Benzoate 30000 ppm", "value": 1.40}, {"measurement": "log reduction", "setting": "[3]; Sodium Benzoate 10000 ppm", "value": 0.00}, {"measurement": "log reduction", "setting": "[3]; Sodium Benzoate 20000 ppm", "value": 0.00}, {"measurement": "log reduction", "setting": "[3]; Sodium Benzoate 30000 ppm", "value": 0.00}, {"measurement": "log reduction", "setting": "[3]; Sodium Benzoate 40000 ppm", "value": 0.00}, {"measurement": "log reduction", "setting": "[3]; Sodium Benzoate 50000 ppm", "value": 2.06}]}, {"smiles": "CCCCCCCCCC[N+](C)(C)CCCCCCCCCC.[Cl-]", "note": "[Didecyl dimethyl ammonium chloride]", "values": [{"measurement": "log reduction", "setting": "[2]; [4]", "value": 1.01}, {"measurement": "log reduction", "setting": "[2]; [5]", "value": 2.44}, {"measurement": "log reduction", "setting": "[2]; [6]", "value": ">4.05"}, {"measurement": "log reduction", "setting": "[2]; [7]", "value": ">4.05"}, {"measurement": "log reduction", "setting": "[2]; [8]", "value": ">4.05"}, {"measurement": "Log reduction", "setting": "[3]; [4]", "value": 1.07}, {"measurement": "Log reduction", "setting": "[3]; [5]", "value": 1.01}, {"measurement": "Log reduction", "setting": "[3]; [6]", "value": 1.33}, {"measurement": "Log reduction", "setting": "[3]; [7]", "value": 2.43}, {"measurement": "Log reduction", "setting": "[3]; [8]", "value": ">4.52"}]}, {"smiles": "CC(O)C(=O)O", "note": "(stereo not drawn) [Lactic Acid]", "values": [{"measurement": "log reduction", "setting": "[2]; Lactic Acid 100 ppm", "value": 0.06}, {"measurement": "log reduction", "setting": "[2]; Lactic Acid 250 ppm", "value": 0.12}, {"measurement": "log reduction", "setting": "[2]; Lactic Acid 500 ppm", "value": 0.05}, {"measurement": "log reduction", "setting": "[2]; Lactic Acid 1000 ppm", "value": 0.08}, {"measurement": "log reduction", "setting": "[2]; Lactic Acid 2500 ppm", "value": 0.15}, {"measurement": "log reduction", "setting": "[1]; Lactic Acid 200 ppm", "value": 0.00}, {"measurement": "log reduction", "setting": "[1]; Lactic Acid 500 ppm", "value": 0.00}, {"measurement": "log reduction", "setting": "[1]; Lactic Acid 1000 ppm", "value": 2.08}, {"measurement": "log reduction", "setting": "[1]; Lactic Acid 1500 ppm", "value": 3.67}, {"measurement": "log reduction", "setting": "[1]; Lactic Acid 2000 ppm", "value": 4.49}]}, {"smiles": "CCCCCCCCCCCCN(CCCN)CCCN", "note": "[Bis (3-aminopropyl) dodecylamine]", "values": [{"measurement": "Log reduction", "setting": "[1]; Bis (3-aminopropyl) dodecylamine 5 ppm", "value": 0.01}, {"measurement": "Log reduction", "setting": "[1]; Bis (3-aminopropyl) dodecylamine 12.5 ppm", "value": 0.00}, {"measurement": "Log reduction", "setting": "[1]; Bis (3-aminopropyl) dodecylamine 25 ppm", "value": 2.00}, {"measurement": "Log reduction", "setting": "[1]; Bis (3-aminopropyl) dodecylamine 50 ppm", "value": ">5.52"}, {"measurement": "Log reduction", "setting": "[1]; Bis (3-aminopropyl) dodecylamine 100 ppm", "value": ">5.52"}, {"measurement": "Log reduction", "setting": "[3]; Bis (3-aminopropyl) dodecylamine 10 ppm", "value": 3.14}, {"measurement": "Log reduction", "setting": "[3]; Bis (3-aminopropyl) dodecylamine 20 ppm", "value": ">4.44"}, {"measurement": "Log reduction", "setting": "[3]; Bis (3-aminopropyl) dodecylamine 40 ppm", "value": ">4.44"}, {"measurement": "Log reduction", "setting": "[3]; Bis (3-aminopropyl) dodecylamine 60 ppm", "value": ">4.44"}, {"measurement": "Log reduction", "setting": "[3]; Bis (3-aminopropyl) dodecylamine 80 ppm", "value": ">4.44"}]}, {"smiles": "O=c1[nH]sc2ccccc12", "note": "[Benzisothiazolinone]", "values": [{"measurement": "log reduction", "setting": "[2]; Benzisothiazolinone 50 ppm", "value": "−0.03"}, {"measurement": "log reduction", "setting": "[2]; Benzisothiazolinone 100 ppm", "value": 0.17}, {"measurement": "log reduction", "setting": "[2]; Benzisothiazolinone 250 ppm", "value": 0.14}, {"measurement": "log reduction", "setting": "[2]; Benzisothiazolinone 500 ppm", "value": 0.24}, {"measurement": "log reduction", "setting": "[2]; Benzisothiazolinone 1000 ppm", "value": 0.28}, {"measurement": "log reduction", "setting": "[1]; Benzisothiazolinone 12.5 ppm", "value": 0.00}, {"measurement": "log reduction", "setting": "[1]; Benzisothiazolinone 25 ppm", "value": 0.00}, {"measurement": "log reduction", "setting": "[1]; Benzisothiazolinone 50 ppm", "value": 0.00}, {"measurement": "log reduction", "setting": "[1]; Benzisothiazolinone 100 ppm", "value": 0.03}, {"measurement": "log reduction", "setting": "[1]; Benzisothiazolinone 200 ppm", "value": 1.21}, {"measurement": "log reduction", "setting": "[3]; Benzisothiazolinone 50 ppm", "value": 0.00}, {"measurement": "log reduction", "setting": "[3]; Benzisothiazolinone 100 ppm", "value": 0.00}, {"measurement": "log reduction", "setting": "[3]; Benzisothiazolinone 250 ppm", "value": 0.00}, {"measurement": "log reduction", "setting": "[3]; Benzisothiazolinone 500 ppm", "value": 0.00}, {"measurement": "log reduction", "setting": "[3]; Benzisothiazolinone 1000 ppm", "value": 0.00}]}, {"smiles": "CC(=O)C1C(=O)C=C(C)OC1=O", "note": "(stereo not drawn) [Dehydroacetic acid]", "values": [{"measurement": "log reduction", "setting": "[3]; Dehydroacetic acid 1000 ppm", "value": 0.00}, {"measurement": "log reduction", "setting": "[3]; Dehydroacetic acid 2000 ppm", "value": 0.00}, {"measurement": "log reduction", "setting": "[3]; Dehydroacetic acid 3000 ppm", "value": 0.00}, {"measurement": "log reduction", "setting": "[3]; Dehydroacetic acid 4000 ppm", "value": 0.23}, {"measurement": "log reduction", "setting": "[3]; Dehydroacetic acid 5000 ppm", "value": 0.52}]}]}
